Experimental findings from ChEMBL document CHEMBL2073793, “An in vitro evaluation of human cytochrome P450 3A4 and P-glycoprotein inhibition by garlic” (J Pharm Pharm Sci, 2001) are described below.

For the data set, the target named is ATP-dependent translocase ABCB1 (Homo sapiens, UniProt P08183). The experiment in a line: TP_TRANSPORTER: ATP hydrolysis GENTEST. Format: functional.
ATP-dependent translocase ABCB1, sequence (P08183 whole entry): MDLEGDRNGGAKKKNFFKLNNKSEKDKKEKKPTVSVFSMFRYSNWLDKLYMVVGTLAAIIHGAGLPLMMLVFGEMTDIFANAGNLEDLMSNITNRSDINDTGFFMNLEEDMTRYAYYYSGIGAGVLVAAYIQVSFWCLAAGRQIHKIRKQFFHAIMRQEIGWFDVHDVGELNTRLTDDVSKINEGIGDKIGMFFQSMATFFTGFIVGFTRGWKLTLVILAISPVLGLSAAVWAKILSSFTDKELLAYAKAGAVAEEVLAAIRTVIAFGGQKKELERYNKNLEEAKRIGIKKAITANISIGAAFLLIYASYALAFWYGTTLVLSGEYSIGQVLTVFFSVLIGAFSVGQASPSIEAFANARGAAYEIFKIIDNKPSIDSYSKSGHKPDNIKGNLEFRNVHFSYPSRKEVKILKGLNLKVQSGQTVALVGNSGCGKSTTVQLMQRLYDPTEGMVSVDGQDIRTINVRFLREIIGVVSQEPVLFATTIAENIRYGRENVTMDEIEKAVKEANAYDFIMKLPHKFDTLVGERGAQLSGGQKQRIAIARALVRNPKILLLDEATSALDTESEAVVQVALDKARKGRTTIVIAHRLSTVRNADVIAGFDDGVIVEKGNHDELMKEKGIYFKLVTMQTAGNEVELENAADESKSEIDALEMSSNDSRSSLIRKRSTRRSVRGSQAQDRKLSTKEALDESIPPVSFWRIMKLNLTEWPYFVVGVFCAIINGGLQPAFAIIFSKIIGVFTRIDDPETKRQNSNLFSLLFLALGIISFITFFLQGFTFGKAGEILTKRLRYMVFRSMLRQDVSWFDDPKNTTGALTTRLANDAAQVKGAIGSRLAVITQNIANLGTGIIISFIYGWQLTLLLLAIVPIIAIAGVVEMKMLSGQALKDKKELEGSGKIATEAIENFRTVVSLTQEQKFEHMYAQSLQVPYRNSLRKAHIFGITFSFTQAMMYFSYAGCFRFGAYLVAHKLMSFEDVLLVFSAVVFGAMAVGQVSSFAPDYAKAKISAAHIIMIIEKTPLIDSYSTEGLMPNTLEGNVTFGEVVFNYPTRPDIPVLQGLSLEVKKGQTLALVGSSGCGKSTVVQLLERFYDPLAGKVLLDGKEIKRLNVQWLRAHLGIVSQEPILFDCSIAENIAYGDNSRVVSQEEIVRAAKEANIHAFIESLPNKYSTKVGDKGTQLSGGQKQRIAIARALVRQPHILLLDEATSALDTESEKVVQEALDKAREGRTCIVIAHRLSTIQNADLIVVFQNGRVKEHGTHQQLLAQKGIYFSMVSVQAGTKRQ

For GARLIC, the Activity entry is “substrate [+]”.
